According to US20080286350A1, “Formulation of Multivalent Antibody Constructs and Use of Same for Cancer Therapy” (BC CANCER AGENCY, priority 2004, published 2008):

Experiments:
Type in all cases: cell-based
[1] = system: Ramos cells; assay: MTT cell viability assay, Ramos cells, 48 hours (Example 1)
[2] = system: Z-138 cells; assay: Cell cycle analysis and DAPI staining, Z-138; conditions: 15 μg/mL, 3 days
Method: (§1) FIGS. 6(a)-6(b) are bar graphs and Western blot analyses showing modulation of cancer cell survival pathways by multivalent liposomal Ab constructs. […] The concentration of trastuzumab was 200 μg/mL. (b) Representative cell cycle analysis, DAPI staining and Western blot analyses of Z-138 cells after exposure to free or liposomal rituximab for 3 days. The concentration of rituximab was 15 μg/mL. […] For DAPI staining, yellow arrows indicate apoptotic morphology of DNA condensation or fragmentation associated with Z-138 cells exposed to various treatments. The scale bar is equivalent to 50 μm, and all images are shown at the same magnification.
Cells were harvested after treatment and fixed in cold 70% ethanol adjusted to 1×10^6 cells/mL and 2×10^6 cells/mL for cell cycle analyses and DAPI staining, respectively. In the case of cell cycle analyses, cells were stained in propidium iodide (PI) buffer [50 μg/mL PI, 1 mg/mL RNase A (Sigma), and 0.1% Triton X-100 in PBS] at 37° C. for 15 min as previously described ^28. Cells were then chilled on ice for 1 h and analyzed on a FACSCalibur flow cytometer (Becton Dickinson, San Jose, Calif.) with 20,000 events collected for each sample. In the case of DAPI staining, cells were incubated in DAPI staining solution (0.1 μg/mL DAPI, 1 mg/mL RNase A and 0.1% Triton X-100 in PBS) for 15 min, followed by chilling on ice for 30 min. Cells were cytospun onto a glass slide, and viewed with a Leica DMLB fluorescence microscope. Images were captured with a Retiga 1300i digital camera and analyzed by the computer software OpenLab 3.5.1 (Improvision).

[3] = system: phosphorylated p65NF-κB, Bcl-xL, Bcl-2, Bax, p-Akt; assay: Western blot analyses of cell survival molecules, Z-138; conditions: 15 μg/mL, 3 days
Method: as §1
The following antibodies were used in this study: anti-p-HER2-Tyr-1248/Tyr-1173; anti-HER2; anti-p-Akt-Ser-473 and anti-Akt (all were rabbit polyclonal, New England Biolabs) and anti-human β-actin (mouse monoclonal, Sigma). The secondary antibody was horseradish peroxidase-conjugated anti-mouse or anti-rabbit IgG (Promega, Madison, Wis.). Proteins were detected by enhanced chemiluminescence (Amersham Pharmacia Biotech, Buckinghamshire, England), and visualized after exposure to Kodak autoradiography film. Equivalent amounts of protein (30 μg/lane determined by Bradford assay) were resolved by 12% SDS-polyacrylamide pre-made gels (Bio-Rad).

[4] = system: Ramos (Burkitt's lymphoma) cell line; assay: Cell viability assay, fraction of cells affected (fa), Ramos
Method: (§2) FIGS. 5(a)-(d) are a series of bar graphs summarizing results for in vitro treatment of cancer cell lines with free bivalent or liposomal multivalent Ab constructs. […] Fraction of cells affected (fa) was calculated as follows: fa=1−fu, where fu was the fraction of remaining viable cells calculated as the ratio of the absorbance readings from the MTT assay for treated and untreated groups. Data represent mean ±S.E.M. from 3 independent experiments. * and ^# denote P<0.05 as compared to the free Ab treatment (ANOVA and Scheffe test for post-hoc comparisons).
(§3) Cells (3,500 cells/well for LCC6^HER2 and MCF7^HER2, and 20-50,000 cells/well for Ramos and 20,000 cells/well for Z-138) were seeded in 96-well plates. In the case of LCC6^HER2 and MCF7^HER2 cells, treatment was added after an overnight incubation to allow cell adherence to plates. In the case of Ramos and Z-138 cells, treatment was added on the same day after seeding. Cell viability was determined using 3-(4,5-dimethylthiazol-2-yl)-2,5-diphenyltetrazolium bromide (MTT) as previously described ^28 or Alamar Blue added in 10 μL/well with an 18-h incubation before reading fluorescence in a Fluorstar (v 1.2) plate reader (BMG Labtechnologies, Offenburg, Germany).
(§4) For rituximab, testing was conducted in a Burkitt's lymphoma cell line, Ramos (FIG. 5c), and a mantle cell lymphoma cell line, Z-138 (FIG. 5d).

[5] = system: Z-138 (mantle cell lymphoma) cell line; assay: Cell viability assay, fraction of cells affected (fa), Z-138
Method: as §2, §3, §4

[6] = system: caspase 3/7; assay: Caspase 3/7 activity, Z-138; conditions: Z-138 cells, data not shown
[7] = 3 days, 10% serum, range of Ab concentrations tested

Substance | potency / cytotoxic activity on cell viability (MTT assay), in words [1] | apoptosis: percentage of cells in sub-G1/G0 phase, morphology (DAPI) [2] | expression levels of phosphorylated p65NF-κB and downstream Bcl-xL [3] | also measured
Lipo-RTX 48: Rituximab bound to liposomes at antibody-to-lipid ratio of 48 μg antibody/μmol lipid | superior potency to free Rituximab | – | – | –
Lipo-RTX 59: Rituximab bound to liposomes at antibody-to-lipid ratio of 59 μg antibody/μmol lipid | superior potency to free Rituximab | – | – | –
cross-linked rituximab: Free rituximab cross-linked by an anti-human IgG F(ab)′ (goat F(ab′)2 anti-human IgG, 50 μg/mL), included as a control | – | increases | reduced | expression level of p-Akt [3]: capable of reducing; activity (fa) compared to liposomal rituximab, in words ([4]; Ab concentrations above 10 μg/mL, P<0.05): more effective than liposomal rituximab
free rituximab: a therapeutic antibody targeting CD20; anti CD20 monoclonal antibody | minimal or no cytotoxic activity | not different from untreated cells | not different from untreated cells | –
liposomal rituximab: rituximab conjugated to DSPC/CHOL/DSPE-PEG2000/DSPE-PEG2000-MAL liposomes, Ab-to-lipid ratio 50-70 μg/μmol | – | increases | reduced | activity (fa) compared to free rituximab, in words [5, 7]: significantly more effective than the free, bivalent form; activity (fa) compared to cross-linked rituximab, in words ([5]; P>0.05): not significantly different from that of cross-linked rituximab; activity (fa) compared to free rituximab, in words [4, 7]: significantly more effective than the free, bivalent form; increase in caspase 3/7 activity [6]: not
